Source: ChEMBL document CHEMBL5634128, “Development of chalcone-like derivatives and their biological and mechanistic investigations as novel influenza nuclear export inhibitors” (Eur J Med Chem, 2023)
Values joined by “and” are separate entries in the source; they are usually repeats but may differ in a detail not shown here. Identical values can stand only once. Active and inactive are the calls of the source. The rule behind the calls is not given here.

Columns and labels:
Fibroblast = test: (§1) Cytotoxicity against chicken embryo fibroblast cells assessed as reduction in cell growth at 50 uM by CCK-8 assay relative to control; format: toxicity, cell-based, Gallus gallus; set-up: Activity: scale not given: the % may be the effect or the level left; conditions: fibroblast, 50 µM
[1] = as §1; format: toxicity, cell-based, Gallus gallus; set-up: Activity: scale not given: the % may be the effect or the level left; conditions: chicken embryo fibroblast cells, read-out: Activity
Influenza A virus [2] = test: Anti-influenza activity against Influenza A virus A/PR/8/34 infected in chicken embryo fibroblast assessed as reduction in viral growth; format: functional, organism-based; conditions: A/PR/8/34, Fibroblast
Influenza A virus [3] = test: Anti-influenza activity against Influenza A virus H5N1 infected in chicken embryo fibroblast assessed as reduction in viral growth; format: functional, organism-based
Influenza A virus [4] = test: Anti-influenza activity against Influenza A virus B/Victoria infected in chicken embryo fibroblast assessed as reduction in viral growth; format: functional, organism-based
Influenza A virus [5] = test: Anti-influenza activity against Influenza A virus pdm09 infected in chicken embryo fibroblast assessed as reduction in viral growth; format: functional, organism-based
Influenza A virus [6] = test: Anti-influenza activity against Influenza A virus A/Brisbane/10/2007 infected in chicken embryo fibroblast assessed as reduction in viral growth; format: functional, organism-based; conditions: A/Brisbane/10/2007, Fibroblast
Influenza A virus [7] = test: Anti-influenza activity against Influenza A virus B/Yamagata infected in chicken embryo fibroblast assessed as reduction in viral growth; format: functional, organism-based
Influenza A virus [8] = test: Anti-influenza activity against Influenza A virus H5N8 infected in chicken embryo fibroblast assessed as reduction in viral growth; format: functional, organism-based
[9] = Cytotoxicity against chicken embryo fibroblast cells assessed as reduction in cell growth by CCK-8; format: toxicity, cell-based, Gallus gallus
Influenza A virus [10] = test: Anti-influenza activity against Influenza A virus A/Goose/Guangdong/SH7/2013 (H5N1) infected in chicken embryo fibroblast assessed as inhibition of virus-induced cytopathic effect; format: functional
Nucleoprotein = Nucleoprotein (Influenza A virus (strain A/Wilson-Smith/1933 H1N1), UniProt P15682); test: Binding affinity to influenza A virus Nucleoprotein assessed as dissociation constant by SPR analysis
Influenza A virus [11] = test: Anti-influenza activity against Influenza A virus A/Goose/Guangdong/SH7/2013 (H5N1) infected in chicken embryo fibroblast at MOI 1 assessed as reduction in NP expression in cytoplasm at 10 uM measured after 10 hr post infection by Western blot analysis; format: functional, organism-based
Influenza A virus [12] = test: Anti-influenza activity against Influenza A virus A/Goose/Guangdong/SH7/2013 (H5N1) infected in chicken embryo fibroblast at MOI 1 assessed as distribution of NP in nucleus at 10 uM measured after 10 hr post infection by DAPI staining based assay; format: functional, organism-based
[13] = Binding affinity to influenza A virus M1 assessed as dissociation constant by SPR analysis
[14] = biological target: Single-stranded DNA cytosine deaminase (Homo sapiens) (UniProt Q9GZX7); test: Induction of GFP-tagged AID degradation in human A549 cells at 20 uM; format: cell-based
Influenza A virus [15] = test: Anti-influenza activity against Influenza A virus A/Goose/Guangdong/SH7/2013 (H5N1) infected in chicken embryo fibroblast at MOI 1 assessed as decrease in ratio of cytoplasmic to nuclear NP level at 10 uM measured after 10 hr post infection by Western blot analysis; format: functional, organism-based
[16] = biological target: Exportin-1 (Homo sapiens) (UniProt O14980); test: Inhibition of CRM1-mediated nuclear export in human A549 cells assessed as distribution of GFP-tagged AID in cytoplasm at 20 uM administered for 12 hrs and measured after 24 hrs by fluorescence microscopy analysis; format: cell-based
[17] = Binding affinity to influenza A virus NS2 assessed as dissociation constant by SPR analysis
[18] = biological target: Exportin-1 (Homo sapiens) (UniProt O14980); test: Inhibition of CRM1-mediated nuclear export in human A549 cells assessed as distribution of GFP-tagged AID in nucleus at 20 uM administered for 12 hrs and measured after 24 hrs by fluorescence microscopy analysis; format: cell-based; conditions: time 36.0 hrs
Influenza A virus [19] = test: Anti-influenza activity against Influenza A virus A/Goose/Guangdong/SH7/2013 (H5N1) infected in chicken embryo fibroblast at MOI 1 assessed as reduction in NP expression in nucleus at 10 uM measured after 10 hr post infection by Western blot analysis; format: functional, organism-based

Chain of Exportin-1 (Homo sapiens) (O14980 whole entry): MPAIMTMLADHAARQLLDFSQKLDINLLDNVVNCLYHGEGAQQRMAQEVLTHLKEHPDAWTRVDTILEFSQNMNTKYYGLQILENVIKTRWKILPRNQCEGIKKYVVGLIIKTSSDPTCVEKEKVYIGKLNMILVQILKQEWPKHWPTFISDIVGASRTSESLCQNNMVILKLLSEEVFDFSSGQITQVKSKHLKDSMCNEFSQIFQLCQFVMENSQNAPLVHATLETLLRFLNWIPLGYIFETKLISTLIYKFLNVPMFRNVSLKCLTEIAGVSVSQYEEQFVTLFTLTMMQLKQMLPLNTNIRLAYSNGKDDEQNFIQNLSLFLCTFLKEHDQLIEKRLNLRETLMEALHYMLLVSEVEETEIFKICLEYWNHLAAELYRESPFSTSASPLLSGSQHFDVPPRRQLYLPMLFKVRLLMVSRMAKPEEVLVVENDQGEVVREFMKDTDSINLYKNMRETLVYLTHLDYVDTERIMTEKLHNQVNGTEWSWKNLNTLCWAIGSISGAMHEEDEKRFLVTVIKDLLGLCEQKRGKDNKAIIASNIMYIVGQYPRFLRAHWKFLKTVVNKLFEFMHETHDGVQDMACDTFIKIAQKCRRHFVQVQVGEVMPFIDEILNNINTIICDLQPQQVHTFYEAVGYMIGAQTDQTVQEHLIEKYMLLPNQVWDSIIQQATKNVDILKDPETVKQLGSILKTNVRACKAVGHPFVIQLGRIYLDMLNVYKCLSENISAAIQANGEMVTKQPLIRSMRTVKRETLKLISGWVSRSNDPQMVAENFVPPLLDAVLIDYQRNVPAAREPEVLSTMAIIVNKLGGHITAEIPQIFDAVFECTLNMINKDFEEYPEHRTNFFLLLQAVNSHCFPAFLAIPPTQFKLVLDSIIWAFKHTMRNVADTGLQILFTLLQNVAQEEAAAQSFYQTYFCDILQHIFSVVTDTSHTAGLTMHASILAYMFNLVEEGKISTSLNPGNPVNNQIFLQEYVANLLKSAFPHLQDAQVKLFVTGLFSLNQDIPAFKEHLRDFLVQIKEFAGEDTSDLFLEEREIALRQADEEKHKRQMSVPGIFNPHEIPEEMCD
Chain of Single-stranded DNA cytosine deaminase (Homo sapiens) (Q9GZX7 whole entry): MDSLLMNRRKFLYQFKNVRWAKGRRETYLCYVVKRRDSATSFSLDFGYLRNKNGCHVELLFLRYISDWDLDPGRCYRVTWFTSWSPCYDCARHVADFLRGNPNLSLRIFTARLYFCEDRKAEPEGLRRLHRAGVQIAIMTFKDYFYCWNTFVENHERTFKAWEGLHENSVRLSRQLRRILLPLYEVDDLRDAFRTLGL
Chain of Nucleoprotein (P15682 whole entry): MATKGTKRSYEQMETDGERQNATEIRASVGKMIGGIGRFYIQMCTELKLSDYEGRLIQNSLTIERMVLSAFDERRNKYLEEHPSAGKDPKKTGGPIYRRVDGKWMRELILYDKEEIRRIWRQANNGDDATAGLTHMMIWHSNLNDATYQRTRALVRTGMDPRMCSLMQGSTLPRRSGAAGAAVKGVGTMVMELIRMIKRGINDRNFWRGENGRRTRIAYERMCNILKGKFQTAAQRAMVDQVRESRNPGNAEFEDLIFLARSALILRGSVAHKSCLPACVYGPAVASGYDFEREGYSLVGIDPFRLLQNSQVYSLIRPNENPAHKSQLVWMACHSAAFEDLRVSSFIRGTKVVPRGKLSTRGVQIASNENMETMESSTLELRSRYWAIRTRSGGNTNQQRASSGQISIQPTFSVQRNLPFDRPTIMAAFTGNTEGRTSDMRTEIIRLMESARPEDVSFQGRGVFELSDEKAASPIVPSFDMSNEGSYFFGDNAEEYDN

SMILES | Activity (Fibroblast) [%] | percent cell viability relative to control at 50 µM [1] [%] | EC50 (Influenza A virus [2]) [µM] | EC50 (Influenza A virus [3]) [µM] | EC50 (Influenza A virus [4]) [µM] | EC50 (Influenza A virus [5]) [µM] | EC50 (Influenza A virus [6]) [µM] | EC50 (Influenza A virus [7]) [µM] | EC50 (Influenza A virus [8]) [µM] | CC50 [9] [µM] | inhibition (INH) (Influenza A virus [10]) | other results
CCC(CC)O[C@@H]1C=C(C(=O)O)C[C@H](N)[C@H]1NC(C)=O [OSELTAMIVIR CARBOXYLATE] | 105.08 | 100 | 3.08 | 5.7 | 2.43 | > 100 | 1.08 | 0.98 | 6.49 | > 100 | 98.5% and 97.3% | 
COc1cccc(OC)c1/C=C/C(=O)/C=C/c1ccc(-c2ccncc2)cc1 | 153.71 |  |  |  |  |  |  |  |  |  | 26.05% | 
COc1cccc(OC)c1/C=C/C(=O)/C=C/c1ccc(N2CCOCC2)cc1 |  | 102 | 7.31 | 14.9 | 3.13 | 4.56 | 3.69 | 4.82 | 9.6 | > 100 | 96.62% | Kd (Nucleoprotein): 0.239 µM; Activity (Influenza A virus [11]): Active; Activity (Influenza A virus [12]): Active; Kd [13]: Not Active; Activity [14]: Active; Activity (Influenza A virus [15]): Active; inhibition [16]: inactive; Kd [17]: Not Active; inhibition [18]: inactive; Activity (Influenza A virus [19]): Active
